In assay [1] the target is T1, CETP (Homo sapiens, UniProt P11597).
T1 sequence (P11597 18-493): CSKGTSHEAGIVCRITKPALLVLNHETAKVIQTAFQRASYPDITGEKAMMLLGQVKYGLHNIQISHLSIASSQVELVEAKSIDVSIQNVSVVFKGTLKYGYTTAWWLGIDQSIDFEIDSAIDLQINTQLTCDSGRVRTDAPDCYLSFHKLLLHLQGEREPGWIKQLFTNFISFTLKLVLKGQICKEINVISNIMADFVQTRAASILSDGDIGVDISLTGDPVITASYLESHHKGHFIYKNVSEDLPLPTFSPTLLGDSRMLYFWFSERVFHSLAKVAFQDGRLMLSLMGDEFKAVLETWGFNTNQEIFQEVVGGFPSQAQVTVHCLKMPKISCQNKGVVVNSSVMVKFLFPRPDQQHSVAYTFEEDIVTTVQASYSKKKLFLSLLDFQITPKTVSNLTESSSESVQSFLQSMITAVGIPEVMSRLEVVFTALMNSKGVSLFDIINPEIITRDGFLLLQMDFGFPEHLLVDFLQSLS
As to the kind of experiment: Ex vivo CETP activity inhibitory effect of plasma from transgenic mice. The arrangement: from tissue; host or cells: plasma of transgenic mice carrying the human CETP gene. The note with it: mouse, po, p.o., 6 hours after administration, transgenic mice with human CETP gene, read-out: CETP activity inhibitory rate in plasma from transgenic mouse. The method, then: Potassium bromide (KBr) was added to the plasma of healthy subjects (40 ml) to adjust specific gravity to d=1.125 g/ml. Density gradient centrifugation (227,000×g, 4° C., 17 hours) was conducted to obtain a fraction with specific gravity d>1.125 g/ml (HDL3 fraction). The fraction thus obtained was dialyzed against a PBS solution [10 mM Na2HPO4/10 mM NaH2PO4/0.15 M NaCl/1 mM EDTA (pH 7.4)]. Then, tritium-labeled cholesterol (10 nM) (50.3 Ci/mM) was dissolved in 95% ethanol and added gradually to the above HDL3 fraction under stirring. The solution was incubated for 18 hours at 37° C. [Tritium-labeled cholesterol was esterified by this procedure by the action of lecithin:cholesterol acyltransferase (LCAT) present on the surface of HDL3 and taken up into the interior of HDL3 as tritium-labeled cholesterylester ([^3H]CE)]. After incubation, KBr was added and specific gravity was adjusted to d=1.21 g/ml. Density gradient centrifugation (227,000×g, 4° C., 17 hours) was conducted and the fraction with d<1.21 g/ml was harvested. The fraction thus obtained was dialyzed against the above PBS solution to obtain HDL3 that took up [^3H]CE ([^3H]CE-HDL3, specific gravity: 1.125<d<1.21, specific activity: 101,000 dpm/nM), which served as donor lipoprotein.
Physiological saline (specific gravity d=1.006 g/ml) was layered upon the plasma of healthy subjects (100 ml). Density gradient centrifugation (227,000×g, 4° C., 4 hours) was conducted and the fraction with specific gravity d>1.006 g/ml was harvested. KBr was added to the fraction thus obtained to adjust specific gravity to d=1.063 g/ml and density gradient centrifugation (227,000×g, 4° C., 20 hours) was conducted to harvest the fraction with specific gravity […]. The thus-obtained fraction was dialyzed against the above PBS solution to obtain fractions containing IDL and LDL (specific gravity: 1.006<d<1.063), which served as acceptor lipoprotein.
Samples were suspended in a 0.5% methylcellulose solution and administered orally using a plastic probe to transgenic mice having introduced human CETP gene (hereafter referred to as mice; prepared using the method described in Japanese Patent Application No. Hei 8-130660), which had been fasted overnight. Blood was collected before administration, and 6 hours after administration CETP activity in the plasma was determined using the following method.
Donor lipoprotein ([^3H]CE-HDL3, containing 0.21 μg cholesterol) obtained in the above (1), acceptor lipoprotein obtained in the above (2) (containing 21 μg of cholesterol), and 0.9 μl of mice plasma were added to microtubes. A total volume was adjusted to 600 μl/tube with a TBS solution [10 mM Tris/0.15 M NaCl (pH 7.4)]. The microtubes were incubated for 15 hours at 37° C. or 4° C. Then, an ice-cooled TBS solution (400 μl/tube) and a 0.3% dextran sulfate solution (100 μl/tube) containing 0.15 M magnesium chloride were added to the microtubes and mixed well. After allowing the microtubes to stand for 30 minutes at 4° C., centrifugation (8,000 rpm, 4° C., 10 minutes) was carried out and radioactivity of the resulting supernatant (HDL fraction) was determined with a scintillation counter.

Assay [2] deals with T1, CETP. The assay can be described thus: In vitro CETP activity inhibitory effect in whole plasma. It is filed as biochemical. The arrangement: Plasma containing [^3H]CE-HDL3 (600,000 dpm/ml) was prepared by adding donor lipoprotein obtained in the above (1) to plasma from healthy subjects; from tissue; host or cells: whole plasma of healthy subjects. As to conditions: plasma from healthy subjects containing [3H]CE-HDL3, incubated 4 hours at 37° C.; read-out: CETP activity inhibition in whole plasma IC50. Summed up: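 HDL3 was labelled with tritiated cholesterol (10 nM) for 18 h at 37° C in PBS with EDTA (pH 7.4). Test samples were in 1:1 N-methylpyrrolidone/PEG 400 and assayed in whole plasma. IC50 was calculated from % inhibition of CETP activity.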

Results on 20 compounds are retold here after patent US9000045B2, “CETP activity inhibitors” (Japan Tobacco Inc., priority 1997, dated 2015).

In general, IC50 refers to the concentration that gives 50% inhibition. On to `CC(C)CCC1(C(=O)Nc2cc(Cl)c(Cl)cc2SC(=O)NC(C)(C)C)CCCC1` [Example 25-108], for which the inhibition at 100 mg/kg on CETP [1] is 8%. For the same compound, on CETP [2], the IC50 was 7 µM.
`CC(=O)NC1(C(=O)Sc2ccccc2NC(=O)C2(CCC(C)C)CCCCC2)CCCCC1` [Example 25-56]: on CETP [1], the inhibition at 30 mg/kg amounted to 24%. Further, the IC50 on CETP [2] turned out to be 7 µM.
For the compound `CC(C)CCC1(C(=O)Nc2ccccc2SC(=O)COc2ccccc2)CCCCC1` [Example 39], at CETP [1], the inhibition at 10 mg/kg turned out to be 17% and the inhibition at 30 mg/kg is 41%. Besides, the IC50 at CETP [2] was determined as 11 µM.
Consider `CC(C)CCC1(C(=O)Nc2ccccc2SC(=O)NC(C)(C)C)CCCCC1` [Example 25-97], for which the inhibition at 100 mg/kg at CETP [1] came to 19%. In addition, on CETP [2], the IC50 turned out to be 9 µM.
For `CC(C)CCC1(C(=O)Nc2ccccc2SC(=O)/C=C/c2ccccc2)CCCCC1` [Example 25-59], at CETP [1], the inhibition at 10 mg/kg was found to be 20% and the inhibition at 30 mg/kg worked out at 37%. On CETP [2], the IC50 is 8 µM.
For the compound `CCC(=O)Sc1ccccc1NC(=O)C1(CCC(C)C)CCCCC1` [Example 38], on CETP [1], the inhibition at 10 mg/kg came to 15% and the inhibition at 30 mg/kg was 40%. For the same compound, the IC50 at CETP [2] amounted to 6 µM.
Regarding `CC(C)CCC1(C(=O)Nc2ccccc2SC(=O)NC(C)(C)C)CCCC1` [Example 25-105], at CETP [1], the inhibition at 100 mg/kg was 14%. At CETP [2], the IC50 turned out to be 6 µM.
As for `CCC(CC)CC1(C(=O)Nc2ccccc2SC(=O)COC)CCCCC1` [Example 61], the inhibition at 30 mg/kg at CETP [1] came to 38%. Also, at CETP [2], the IC50 was found to be 4 µM.
Take `CC(=O)N[C@H](C(=O)Sc1ccccc1NC(=O)C1(CCC(C)C)CCCCC1)C(C)C` [Example 25-45]: on CETP [1], the inhibition at 30 mg/kg was determined as 21%. At CETP [2], the IC50 was determined as 13 µM.
For the compound `CC(C)CC1(C(=O)Nc2ccccc2SC(=O)C(C)C)CCCCC1` [Example 27, S-[2-(1-isobutylcyclohexanecarbonylamino)phenyl]2-methylthiopropionate], the inhibition at 30 mg/kg at CETP [1] came out at 31%. Also, the IC50 at CETP [2] stood at 7 µM.
Consider `CCC(CC)CC1(C(=O)Nc2ccccc2SC(=O)C(C)C)CCCCC1` [Example 26, S-[2-[1-(2-ethylbutyl)cyclohexanecarbonylamino]-phenyl]2-methylthiopropionate], for which, at CETP [1], the inhibition at 30 mg/kg stood at 44%. Besides, on CETP [2], the IC50 came to 7 µM.
As for `CC(C)CCC1(C(=O)Nc2cc([N+](=O)[O-])ccc2SC(=O)C(C)(C)C)CCCCC1` [Example 74], the inhibition at 30 mg/kg at CETP [1] stood at 5%. For the same compound, at CETP [2], the IC50 was found to be 14 µM.
With `CCC(CC)CC1(C(=O)Nc2ccccc2SC(C)=O)CCCCC1` [Example 59], the inhibition at 30 mg/kg at CETP [1] is 44%. Further, the IC50 at CETP [2] stood at 4 µM.
In the case of `CC(C)CCC1(C(=O)Nc2ccccc2SC(=O)C(C)(C)C)CCCCC1` [Example 33], at CETP [1], the inhibition at 10 mg/kg was 23%, the inhibition at 30 mg/kg is 39% and the inhibition at 100 mg/kg is 52%. Besides, the inhibition at 300 mg/kg at CETP [1] (300 mg/kg) came out at 55%. Further, the IC50 on CETP [2] stood at 61 µM.
`CC(=O)Sc1cc(Cl)c(Cl)cc1NC(=O)C1(CCC(C)C)CCCCC1` [Example 25-84]: at CETP [1], the inhibition at 100 mg/kg is 17%. In addition, the IC50 at CETP [2] is 10 µM.
Consider `CC(C)CCC1(C(=O)Nc2cc(C#N)ccc2SC(=O)C(C)(C)C)CCCCC1` [Example 75], for which, on CETP [1], the inhibition at 30 mg/kg was 1%. Moreover, the IC50 on CETP [2] was found to be 25 µM.
For the compound `CC(C)CCC1(C(=O)Nc2ccccc2SC(=O)Nc2ccccc2)CCCCC1` [Example 56], at CETP [1], the inhibition at 30 mg/kg stood at 34%. Also, the IC50 on CETP [2] turned out to be 13 µM.
In the case of `CC(C)CCC1(C(=O)Nc2ccc(Cl)cc2SC(=O)C(C)(C)C)CCCCC1` [Example 77], the inhibition at 30 mg/kg at CETP [1] came out at 1%. Also, at CETP [2], the IC50 amounted to 17 µM.
As for `CCC(CC)CC1(C(=O)Nc2ccccc2SC(=O)C(C)(C)C)CCCCC1` [Example 60], at CETP [1], the inhibition at 30 mg/kg turned out to be 44%. Also, the IC50 on CETP [2] amounted to 41 µM.
As to `CC(C)CCC1(C(=O)Nc2ccccc2SC(=O)C(C)C)CCCCC1` [Example 40], on CETP [1], the inhibition at 10 mg/kg came out at 20%, the inhibition at 30 mg/kg amounted to 48% and the inhibition at 100 mg/kg is 64%. Further, the IC50 at CETP [2] worked out at 23 µM.
